Values quoted from earlier work in patent publication US6235268A, “Antiplaque oral composition and method” (Colgate-Palmolive Company, priority 2000, dated 2001).

Test system: rats
Conditions: Merck Index, Eleventh Ed., 1989

COc1ccc(C(=O)c2ccccc2)c(O)c1 [2-hydroxy-4-methoxybenzophenone]
LD-50 (oral/rats): 12800 mg/kg
